Test [1] relates to induction of TAT by dexamethasone in HepG2 cells. The test is described as follows: HepG2 tyrosine aminotransferase (TAT) assay. In kind it is cell-based, human. Here is the method: Example 21. HepG2 Tyrosine Aminotransferase (TAT) Assay
Glucocorticoid mediated activation of TAT occurs by transactivation of glucocorticoid response elements in the TAT promoter by glucocorticoid receptor agonist complex.
TAT activity was measured as outlined in the literature by A. Ali et al., J. Med. Chem., 2004, 47, 2441-2452.
HepG2 cells were cultured using MEME media supplemented with 10% (v/v) foetal bovine serum; 2 mM L-glutamine and 1% (v/v) NEAA at 37° C., 5%/95% (v/v) CO2/air. The HepG2 cells were counted and adjusted to yield a density of 0.125×10^6 cells/ml in RPMI 1640 without phenol red, 10% (v/v) charcoal stripped FBS, 2 mM L-glutamine and seeded at 25,000 cells/well in 200 μl into 96 well, sterile, tissue culture micro titre plates, and incubated at 37° C., 5% CO2 for 24 hours
Growth media was removed and replaced with assay media {RPMI 1640 without phenol red, 2 mM L-glutamine+10 μM forskolin}. […] Compounds were serially half log diluted in 100% (v/v) dimethylsupfoxide from a 10 mM stock.
HepG2 cells were then lysed with 30 μl of cell lysis buffer containing a protease inhibitor cocktail for 15 minutes at 4° C. 155 μl of substrate mixture was then added containing 5.4 mM Tyrosine sodium salt, 10.8 mM alpha ketoglutarate and 0.06 mM pyridoxal 5′ phosphate in 0.1M potassium phosphate buffer (pH 7.4). After 2 hours incubation at 37° C. the reaction was terminated by the addition of 15 μl of 10M aqueous potassium hydroxide solution, and the plates incubated for a further 30 minutes at 37° C. The TAT activity product was measured by absorbance at […].
[compound] and fitting the data to a 4 parameter logistic equation.

The target in test [2] is T1, human recombinant GR (Homo sapiens, UniProt P04150).
T1 construct: purchased PanVera P2812
T1 sequence (P04150 1-777): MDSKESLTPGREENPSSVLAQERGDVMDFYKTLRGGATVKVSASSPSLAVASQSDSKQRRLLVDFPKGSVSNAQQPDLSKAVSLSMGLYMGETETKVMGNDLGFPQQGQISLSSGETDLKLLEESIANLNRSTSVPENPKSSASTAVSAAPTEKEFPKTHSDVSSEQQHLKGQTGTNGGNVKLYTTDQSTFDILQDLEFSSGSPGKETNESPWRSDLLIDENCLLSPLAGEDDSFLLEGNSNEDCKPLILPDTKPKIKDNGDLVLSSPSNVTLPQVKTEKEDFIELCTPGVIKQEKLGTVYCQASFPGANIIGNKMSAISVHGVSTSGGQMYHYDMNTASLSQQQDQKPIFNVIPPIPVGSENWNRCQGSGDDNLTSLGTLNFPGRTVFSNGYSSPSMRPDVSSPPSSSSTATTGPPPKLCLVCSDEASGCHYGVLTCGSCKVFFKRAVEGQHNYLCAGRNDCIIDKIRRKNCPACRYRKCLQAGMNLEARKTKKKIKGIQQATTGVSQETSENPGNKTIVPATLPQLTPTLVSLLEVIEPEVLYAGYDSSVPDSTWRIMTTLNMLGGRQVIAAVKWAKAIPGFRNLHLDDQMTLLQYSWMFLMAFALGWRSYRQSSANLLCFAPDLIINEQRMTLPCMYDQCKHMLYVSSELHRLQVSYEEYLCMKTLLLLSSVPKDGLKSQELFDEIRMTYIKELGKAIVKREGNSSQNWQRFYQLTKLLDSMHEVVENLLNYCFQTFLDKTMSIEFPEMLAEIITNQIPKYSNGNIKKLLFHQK
Nature of the test: Human glucocorticoid receptor (GR) fluorescence polarisation (FP) binding assay. Here is the method:
Human Glucocorticoid Receptor (GR) Fluorescence Polarisation (FP) Binding Assay
The following is a description of a FP assay for measuring compound inhibition of labelled glucocorticoid binding to the human recombinant GR.
The binding affinity of test compounds was determined using a FP binding assay using human recombinant GR (PanVera P2812) and a fluorescent labelled glucocorticoid ligand (Fluorome GS Red) (PanVera P2894). The presence of inhibitors prevents the formation of a GS Red/GR complex resulting in a decrease in the measured polarisation value. The change in polarisation value in the presence of test compounds is used to calculate the binding affinity of the compound for GR.
This assay was performed in 384 well, black, round-bottom, polypropylene micro titre plates in a final volume of 20 μl. The assay contained 5 μl 1 nM GR (final concentration), 5 μl 0.5 nM Fluorome GS Red (final concentration) in the presence of 10 μl test compounds. Positive control wells (high polarisation) receive, 10 μl 2% (v: v) DMSO vehicle (1% (v/v) final concentration)+5 μl 1 nM GR and 5 μl 0.5 nM Fluorome GS Red. […] Assay blank background wells (used for normalisation) receive 15 μl 1× GS screening buffer+5 μl GR.
Compounds were prepared as solubilised solids at 10 mM in DMSO. On the day of assay, an 8 point half-log serial dilution (55 μl DMSO+25 μl compound solution) was prepared. A 1:50 dilution (1 μl compound solution+49 μl 1× GR screening buffer) was prepared for each compound. The compounds were prepared at 2× final assay concentration.
The plates were mixed and incubated for 4 hour at room temperature.
10× GR screening buffer (100 mM potassium phosphate pH 7.4, 200 mM Na2MoO4, 1 mM EDTA, 20% (v/v) DMSO). To prepare 1× GR screening buffer, combine 1 ml 10× GR screening buffer (PanVera P2814)+1 ml stabilising peptide (PanVera P2815)+7.95 ml 4° C. MQ water. Add 50 μl 1M DTT, vortex and place on ice until use.

Setting [3] is: HepG2 cells, challenge of 100 nM dexamethasone, Ki from IC50 by Cheng and Prusoff equation.
[4] abbreviates: human recombinant GR, fluorescence polarisation binding assay, read-out: GR binding.

The values below come from US12226412B2, “Heteroaryl-ketone fused azadecalin glucocorticoid receptor modulators” (Corcept Therapeutics, Inc., priority 2012, dated 2025).

Structures are written as SMILES. Like-named read-outs stand apart in the source and are kept apart here.

As for `O=C(c1ccco1)[C@]12Cc3cnn(-c4ccc(F)cc4)c3C=C1CCN(S(=O)(=O)c1ccc(C(F)(F)F)cc1)C2` [Example 1G, (R)-(1-(4-fluorophenyl)-6-((4-(trifluoromethyl)phenyl)sulfonyl)-4,4a,5,6,7,8-hexahydro-1H-pyrazolo[3,4-g]isoquinolin-4a-yl)(furan-2-yl)methanone], the Ki is 20 to 100 nM in test [1] and below 0.5 nM in test [2].

With `O=C(c1cccs1)[C@]12Cc3cnn(-c4ccc(F)cc4)c3C=C1CCN(S(=O)(=O)c1ccc(C(F)(F)F)cc1)C2` [Example 1H, (R)-(1-(4-fluorophenyl)-6-((4-(trifluoromethyl)phenyl)sulfonyl)-4,4a,5,6,7,8-hexahydro-1H-pyrazolo[3,4-g]isoquinolin-4a-yl)(thiophen-2-yl)methanone], the Ki in test [1] was 20 to 100 nM; in test [2] it was below 0.5 nM.

In the case of `Cc1cccc(S(=O)(=O)N2CCC3=Cc4c(cnn4-c4ccc(F)cc4)C[C@]3(C(=O)c3ncco3)C2)c1` [Example 1I, (R)-(1-(4-fluorophenyl)-6-(m-tolylsulfonyl)-4,4a,5,6,7,8-hexahydro-1H-pyrazolo[3,4-g]isoquinolin-4a-yl)(oxazol-2-yl)methanone], the Ki is 20 to 100 nM in test [1] (setting [3]) and below 0.5 nM in test [2] (setting [4]).

For `Cc1cccc(S(=O)(=O)N2CCC3=Cc4c(cnn4-c4ccc(F)cc4)C[C@]3(C(=O)c3ncccn3)C2)c1` [Example 1J, (R)-(1-(4-fluorophenyl)-6-(m-tolylsulfonyl)-4,4a,5,6,7,8-hexahydro-1H-pyrazolo [3,4-g]isoquinolin-4a-yl)(pyrimidin-2-yl)methanone], the figures for the Ki in test [1] (setting [3]) and in test [2] (setting [4]) were 20 to 100 nM and below 0.5 nM, respectively.

For the compound `COc1ccnc(C(=O)[C@]23Cc4cnn(-c5ccc(F)cc5)c4C=C2CCN(S(=O)(=O)c2cc(F)cc(F)c2)C3)c1` [Example 1K, (R)-(6-((3,5-difluorophenyl)sulfonyl)-1-(4-fluorophenyl)-4,4a,5,6,7,8-hexahydro-1H-pyrazolo[3,4-g]isoquinolin-4a-yl)(4-methoxypyridin-2-yl)methanone], the Ki was below 20 nM in test [1] (setting [3]) and below 0.5 nM in test [2] (setting [4]).

As to `CCc1ccnc(C(=O)[C@]23Cc4cnn(-c5ccc(F)cc5)c4C=C2CCN(S(=O)(=O)c2cc(F)c(F)c(F)c2)C3)c1` [Example 1L, (R)-(4-ethylpyridin-2-yl)(1-(4-fluorophenyl)-6-((3,4,5-trifluorophenyl)sulfonyl)-4,4a,5,6,7,8-hexahydro-1H-pyrazolo[3,4-g]isoquinolin-4a-yl)methanone], the Ki in test [1] (setting [3]) was below 20 nM; in test [2] (setting [4]), below 0.5 nM.

As to `COc1ccnc(C(=O)[C@]23Cc4cnn(-c5ccc(F)cc5)c4C=C2CCN(S(=O)(=O)c2cc(F)c(F)c(F)c2)C3)c1` [Example 1M, (R)-(1-(4-fluorophenyl)-6-((3,4,5-trifluorophenyl)sulfonyl)-4,4a,5,6,7,8-hexahydro-1H-pyrazolo[3,4-g]isoquinolin-4a-yl)(4-methoxypyridin-2-yl)methanone], the Ki is below 20 nM in test [1] (setting [3]) and below 0.5 nM in test [2] (setting [4]).

Consider `O=C(c1ccccn1)[C@]12Cc3cnn(-c4ccc(F)cc4)c3C=C1CCN(S(=O)(=O)c1ccc(F)cc1)C2` [Example 2, (R)-(1-(4-fluorophenyl)-6-((4-fluorophenyl)sulfonyl)-4,4a,5,6,7,8-hexahydro-1H-pyrazolo[3,4-g]isoquinolin-4a-yl)(pyridin-2-yl)methanone], for which the Ki was below 20 nM in test [1] and below 0.5 nM in test [2].

Take `O=C(c1nccs1)[C@]12Cc3cnn(-c4ccc(F)cc4)c3C=C1CCN(S(=O)(=O)Cc1cccc(F)c1)C2` [Example 2A, (R)-(6-((3-fluorobenzyl)sulfonyl)-1-(4-fluorophenyl)-4,4a,5,6,7,8-hexahydro-1H-pyrazolo[3,4-g]isoquinolin-4a-yl)(thiazol-2-yl) methanone]: the Ki in test [1] (setting [3]) was at least 100 nM; in test [2] (setting [4]), below 0.5 nM.

Regarding `Cc1ccccc1S(=O)(=O)N1CCC2=Cc3c(cnn3-c3ccc(F)cc3)C[C@]2(C(=O)c2ccccn2)C1` [Example 2C, (R)-(1-(4-fluorophenyl)-6-(o-tolylsulfonyl)-4,4a,5,6,7,8-hexahydro-1H-pyrazolo [3,4-g]isoquinolin-4a-yl)(pyridin-2-yl)methanone], the Ki in test [1] (setting [3]) was below 20 nM; in test [2], below 0.5 nM.

For `CCc1ccc(S(=O)(=O)N2CCC3=Cc4c(cnn4-c4ccc(F)cc4)C[C@]3(C(=O)c3ccccn3)C2)cc1` [Example 2D, (R)-(6-((4-ethylphenyl)sulfonyl)-1-(4-fluorophenyl)-4,4a,5,6,7,8-hexahydro-1H-pyrazolo[3,4-g]isoquinolin-4a-yl)(pyridin-2-yl)methanone], the Ki is below 20 nM in test [1] (setting [3]) and below 0.5 nM in test [2] (setting [4]).

With `Cc1cccc(S(=O)(=O)N2CCC3=Cc4c(cnn4-c4ccc(F)cc4)C[C@]3(C(=O)c3ccccn3)C2)c1` [Example 2E, (R)-(1-(4-fluorophenyl)-6-(m-tolylsulfonyl)-4,4a,5,6,7,8-hexahydro-1H-pyrazolo[3,4-g]isoquinolin-4a-yl)(pyridin-2-yl)methanone], the results for the Ki in test [1] and in test [2] were below 20 nM and below 0.5 nM, respectively.

Consider `O=C(c1ccccn1)[C@]12Cc3cnn(-c4ccc(F)cc4)c3C=C1CCN(S(=O)(=O)c1cccc(Cl)c1)C2` [Example 2F, (R)-(6-((3-chlorophenyl)sulfonyl)-1-(4-fluorophenyl)-4,4a,5,6,7,8-hexahydro-1H-pyrazolo[3,4-g]isoquinolin-4a-yl)(pyridin-2-yl)methanone], for which the Ki in test [1] is below 20 nM; in test [2] it was below 0.5 nM.

On to `COc1cccc(S(=O)(=O)N2CCC3=Cc4c(cnn4-c4ccc(F)cc4)C[C@]3(C(=O)c3ccccn3)C2)c1` [Example 2G, (R)-(1-(4-fluorophenyl)-6-((3-methoxyphenyl)sulfonyl)-4,4a,5,6,7,8-hexahydro-1H-pyrazolo[3,4-g]isoquinolin-4a-yl)(pyridin-2-yl)methanone], for which the Ki in test [1] was below 20 nM; in test [2], below 0.5 nM.

With `O=C(c1ccccn1)[C@]12Cc3cnn(-c4ccc(F)cc4)c3C=C1CCN(S(=O)(=O)c1ccc(Cl)c(F)c1)C2` [Example 2H, (R)-(6-((4-chloro-3-fluorophenyl)sulfonyl)-1-(4-fluorophenyl)-4,4a,5,6,7,8-hexahydro-1H-pyrazolo[3,4-g]isoquinolin-4a-yl)(pyridin-2-yl)methanone], the Ki is below 20 nM in test [1] (setting [3]) and below 0.5 nM in test [2] (setting [4]).
